Tests used:
Toll-like receptor 9 = biological target: T1, Toll-like receptor 9 (Homo sapiens, UniProt Q9NR96); assay: Antagonist activity at human TLR9 expressed in human PBMC cells assessed as inhibition of ODN2216 stimulated IFNalpha level preincubated for 30 mins followed by stimulation and measured after 20 hrs by AlphaLISA method; type: cell-based
T1 sequence (Q9NR96 whole entry): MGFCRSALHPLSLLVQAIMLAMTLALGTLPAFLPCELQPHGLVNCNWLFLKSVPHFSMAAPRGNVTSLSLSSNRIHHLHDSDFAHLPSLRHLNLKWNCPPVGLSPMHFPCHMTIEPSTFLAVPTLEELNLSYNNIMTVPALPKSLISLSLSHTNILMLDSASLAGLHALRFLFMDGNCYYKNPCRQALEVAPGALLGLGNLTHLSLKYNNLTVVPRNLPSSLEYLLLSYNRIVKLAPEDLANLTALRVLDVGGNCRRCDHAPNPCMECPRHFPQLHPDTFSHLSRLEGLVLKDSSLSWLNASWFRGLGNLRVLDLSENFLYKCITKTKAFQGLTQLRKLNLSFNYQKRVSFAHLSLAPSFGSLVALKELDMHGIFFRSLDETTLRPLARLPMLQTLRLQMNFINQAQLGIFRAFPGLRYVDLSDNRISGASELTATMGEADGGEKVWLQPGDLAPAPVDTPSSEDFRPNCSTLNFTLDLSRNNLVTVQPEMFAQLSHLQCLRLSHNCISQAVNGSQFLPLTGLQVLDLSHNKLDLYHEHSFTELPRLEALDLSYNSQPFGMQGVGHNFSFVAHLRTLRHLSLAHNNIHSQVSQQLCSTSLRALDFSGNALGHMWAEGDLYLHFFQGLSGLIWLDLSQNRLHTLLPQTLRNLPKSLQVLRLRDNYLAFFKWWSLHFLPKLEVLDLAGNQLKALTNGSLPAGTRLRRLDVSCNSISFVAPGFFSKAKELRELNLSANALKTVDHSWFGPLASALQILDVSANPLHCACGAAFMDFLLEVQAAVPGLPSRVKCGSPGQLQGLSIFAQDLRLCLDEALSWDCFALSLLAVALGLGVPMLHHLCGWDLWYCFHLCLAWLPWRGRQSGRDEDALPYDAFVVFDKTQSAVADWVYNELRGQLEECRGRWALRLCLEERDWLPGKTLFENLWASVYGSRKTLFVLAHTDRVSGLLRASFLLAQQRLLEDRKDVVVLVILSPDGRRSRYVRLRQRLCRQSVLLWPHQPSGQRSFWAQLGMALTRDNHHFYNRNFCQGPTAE

[1] = Oral bioavailability in Balb/c mouse at 10 mg/kg administered as cassette dose measured upto 24 hrs by LC/MS/MS analysis; type: ADME, organism-based; settings: in vivo
Toll-like receptor 7 = biological target: T2, Toll-like receptor 7 (Mus musculus, UniProt P58681); assay: Antagonist activity at mouse TLR7 expressed in human PBMC cells assessed as inhibition of ssRNA stimulated IFNalpha level preincubated for 30 mins followed by stimulation and measured after 20 hrs by AlphaLISA method; type: cell-based
T2 sequence (P58681 whole entry): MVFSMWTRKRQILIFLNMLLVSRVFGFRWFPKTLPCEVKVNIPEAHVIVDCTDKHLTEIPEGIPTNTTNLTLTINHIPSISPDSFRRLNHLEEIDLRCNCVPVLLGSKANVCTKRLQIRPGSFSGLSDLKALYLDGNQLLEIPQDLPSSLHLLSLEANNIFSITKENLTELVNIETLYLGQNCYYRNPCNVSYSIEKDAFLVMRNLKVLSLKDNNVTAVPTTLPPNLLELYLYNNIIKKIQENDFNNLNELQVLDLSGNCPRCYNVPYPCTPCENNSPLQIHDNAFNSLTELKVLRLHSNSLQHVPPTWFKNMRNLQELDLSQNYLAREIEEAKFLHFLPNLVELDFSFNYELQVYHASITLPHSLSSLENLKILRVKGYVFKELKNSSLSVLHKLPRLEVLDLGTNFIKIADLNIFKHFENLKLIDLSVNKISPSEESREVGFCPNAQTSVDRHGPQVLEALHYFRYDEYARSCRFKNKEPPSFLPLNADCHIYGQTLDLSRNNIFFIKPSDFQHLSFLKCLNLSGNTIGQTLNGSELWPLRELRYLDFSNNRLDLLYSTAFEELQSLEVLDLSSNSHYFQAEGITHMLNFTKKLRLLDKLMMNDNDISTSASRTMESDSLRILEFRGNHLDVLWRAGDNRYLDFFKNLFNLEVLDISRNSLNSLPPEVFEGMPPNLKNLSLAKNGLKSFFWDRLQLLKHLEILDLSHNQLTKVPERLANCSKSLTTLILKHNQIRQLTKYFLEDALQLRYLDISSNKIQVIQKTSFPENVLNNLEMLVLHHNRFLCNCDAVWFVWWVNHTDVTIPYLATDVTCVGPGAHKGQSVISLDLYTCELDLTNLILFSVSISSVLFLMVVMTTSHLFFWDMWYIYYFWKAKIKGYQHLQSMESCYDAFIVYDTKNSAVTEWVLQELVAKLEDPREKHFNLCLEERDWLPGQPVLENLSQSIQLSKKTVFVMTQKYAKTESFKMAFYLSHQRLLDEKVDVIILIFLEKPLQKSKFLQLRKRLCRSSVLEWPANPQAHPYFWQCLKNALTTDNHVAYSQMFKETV

[2] = Dissociation constant, pKa of the compound by UV spectrometric titration method; type: physicochemical
[3] = Drug exposure in 129Sv mouse blood at 0.3 mg/kg, po by LC-MS/MS analysis; type: ADME, organism-based; settings: in vivo, read-out: Drug uptake

Cc1cc(-c2cc3[nH]nc(N[C@@H]4CCNC[C@H]4F)c3cc2C2CC2)cc(C)n1
IC50 (Toll-like receptor 9): > 570 nM | bioavailability [1]: 38% | IC50 (Toll-like receptor 7): Not Active | pKa [2]: 6.7 | concentration [3]: 1.3 nM

Source: ChEMBL document CHEMBL5046316, “Structure-Based Optimization of a Fragment-like TLR8 Binding Screening Hit to an In Vivo Efficacious TLR7/8 Antagonist” (ACS Med Chem Lett, 2022)
